According to patent publication US6063789A, “Aminoisoquinolines and aminotheinopyridine derivatives and their use as anti-inflammatory agents” (priority 1996, dated 2000):
Where a name gives a salt, the structure may show the parent alone.

What was measured:
[1] = molecular target: T1, inducible isoform of the enzyme nitric oxide synthase (NOS) (Mus musculus, UniProt P29477); experiment: nitric oxide synthetase activity screen (conversion of 3H-L-arginine to 3H-L-citrulline by lysate of induced J774A-1 macrophages); format: biochemical; settings: lysate of LPS/IFNg-induced murine macrophage J774A-1 cells; 1 hour at room temperature; read-out: IC50 (the concentration of drug substance which gives 50% enzyme inhibition in the assay)
T1 construct: Nitric oxide synthase is produced by cells in response to interferon-g (IFNg) and lipopolysaccharide (LPS); endogenous in cells; host or cells: J774A-1 murine macrophage cell line, induced with LPS and IFN-gamma; crude cell lysate
Method: The activity of compounds according to the invention was tested in the following screen.
The activity of compounds of formula I, or a pharmaceutically acceptable salt, enantiomer or tautomer thereof, may be screened for nitric oxide synthetase activity by a procedure based on that of Forstennann et al. (1992) Eur. J. Pharm. […] Nitric oxide synthetase converts ^3 H-L-arginine to ^3 H-L-citrulline which can be separated by cation exchange chromatography and quantified by liquid scintillation counting.
Enzyme is prepared, after induction, from the cultured murine macrophage cell line J774A-1 (obtained from the laboratories of the Imperial Cancer Research Fund). J774A-1 cells are cultured in Dulbeccos Modified Eagles Medium (DMEM) supplemented with 10% foetal bovine serum, 4 mM L-glutamine and antibiotics (100 units/ml penicillin G, 100 mg/ml streptomycin & 0.25 mg/ml amphotericin B). Cells are routinely grown in 225 cm^2 flasks containing 35 ml medium kept at 37° C. and in a humidified atmosphere containing 5% CO2. Nitric oxide synthase is produced by cells in response to interferon-g (IFNg) and lipopolysaccharide (LPS). The medium from confluent culture flasks is removed and replaced with 25 ml (per flask) of fresh medium containing 1 mg/ml LPS and 10 units/ml IFNg. After a period of 17-20 hours in culture, harvesting of cells is accomplished by scraping the cell sheet from the flask surface into the culture medium. Cells are collected by centrifugation (1000 g for 10 minutes) and lysate prepared by adding to the cell pellet a solution containing 50 mM Tris-HCl (pH 7.5 at 20° C.), 10% (v/v) glycerol, 0.1% (v/v) Triton-X-100, 0.1 mM dithiothreitol and a cocktail of protease inhibitors comprising leupeptin (2 mg/ml), soya bean trypsin inhibitor (10 mg/ml), aprotinin (5 mg/ml) & phenylmethylsulphonyl fluoride (50 mg/ml).
For the assay, 25 μl substrate cocktail (50 mM Tris-HCl (pH 7.5 at 20° C.), 400 μM NADPH, 20 μM flavin adenine dinucleotide, 20 μM flavin mononucleotide, 4 μM tetrahydrobiopterin, 12 μM L-arginine and 0.025 mCi L-[^3 H] arginine) is added to wells of a 96 well filter plate (0.45 μM pore size) containing 25 μl of a solution of test compound in 50 mM Tris-HCl. The reaction is started by adding 50 μl of cell lysate (prepared as above) and after incubation for 1 hour at room temperature is terminated by addition of 50 μl of an aqueous solution of 3 mM nitroarginine and 21 mM EDTA.
Labelled L-citrulline is separated from labelled L-arginine using Dowex AG-SOW. […] After allowing the samples to dry the L-citrulline is quantified by scintillation counting.
Compounds are tested at a range of concentrations and from the inhibitions obtained IC50 values are calculated.

[2] = cited from J Med. Chem., vol 20, No 3, March 1977, pp 449 to 452; cited from earlier work

SMILES	IC50 [1] [µM]	antihypertensive activity [2]
NC1=NC(c2ccccc2)Cc2ccccc21 (centres unmarked) [Example 2, 1-Amino-3-phenyl-3,4-dihydroisoquinoline hydrochloride]	< 25	
C#CC1Cc2ccccc2C(N)=N1 (centres unmarked) [Example 41, 1-Amino-3-ethynyl-3,4-dihydroisoquinoline hydrochloride]	< 25	
NC1=NCCc2ccccc21 [1-amino-3,4-dihydroisoquinoline]		has antihypertensive activity
NC1=NC(c2nccs2)Cc2ccccc21 (centres unmarked) [Example 46, 1-Amino-3-(2-thiazolyl)-3,4-dihydroisoquinoline hydrochloride]	< 25	
CC1Cc2ccccc2C(N)=N1 (centres unmarked) [Example 49, 1-Amino-3-methyl-3,4-dihydroisoquinoline hydroiodide]	< 25	
